pEC50, pIC50: −log10 of the molar value. Blank lines part the entries; values can stand above or below the molecule they belong to. Calls of active or inactive are those of the source. The calls are words filed in the database; no cut-off is given here.
Legend:
[1] = biological target: T1, Chemerin-like receptor 1 (Homo sapiens, UniProt Q99788); assay: Antagonist activity at human CMKLR1
T1 sequence (Q99788 whole entry): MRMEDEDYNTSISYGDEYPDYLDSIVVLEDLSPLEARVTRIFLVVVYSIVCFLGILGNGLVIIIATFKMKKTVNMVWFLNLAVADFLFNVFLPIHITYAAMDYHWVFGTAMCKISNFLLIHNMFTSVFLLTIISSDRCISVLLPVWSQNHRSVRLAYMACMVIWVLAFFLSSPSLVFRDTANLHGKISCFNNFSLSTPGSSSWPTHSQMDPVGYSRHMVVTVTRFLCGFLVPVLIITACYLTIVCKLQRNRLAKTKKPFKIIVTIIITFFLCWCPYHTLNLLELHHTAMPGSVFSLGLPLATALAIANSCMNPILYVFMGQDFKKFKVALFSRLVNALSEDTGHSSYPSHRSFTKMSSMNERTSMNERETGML

[2] = biological target: T1, Chemerin-like receptor 1; assay: Antagonist activity at human CMKLR1 expressed in CHO-K1 cells co-expressing Galpha-16 assessed as change in intracellular calcium concentration incubated for 30 mins in presence of chemerin-9 by FLIPR calcium 5 assay; type: functional, cell-based
[3] = Toxicity in imiquimod-induced BALB/c mouse psoriasis model assessed as change in body weight at 30 mg/kg, po qd administered for 7 days; type: organism-based; details: in vivo, 168 h, time 7 day
[4] = Cmax in C57BL6 mouse at 30 mg/kg, po measured upto 24 hrs by LC-MS/MS analysis; type: ADME, organism-based; set-up: dose 30 mg/kg, time < 24 hrs, route po; details: in vivo
[5] = AUClast in C57BL6 mouse at 30 mg/kg, po measured upto 24 hrs by LC-MS/MS analysis; type: ADME, organism-based; set-up: dose 30 mg/kg, time < 24 hrs, route po; details: in vivo
[6] = Tmax in C57BL6 mouse at 30 mg/kg, po measured upto 24 hrs by LC-MS/MS analysis; type: ADME, organism-based; details: in vivo
[7] = Tmax in C57BL6 mouse at 10 mg/kg, po measured upto 24 hrs by LC-MS/MS analysis; type: ADME, organism-based; details: in vivo
[8] = AUClast in C57BL6 mouse at 10 mg/kg, po measured upto 24 hrs by LC-MS/MS analysis; type: ADME, organism-based; set-up: dose 10 mg/kg, time < 24 hrs, route po; details: in vivo
[9] = Cmax in C57BL6 mouse at 10 mg/kg, po measured upto 24 hrs by LC-MS/MS analysis; type: ADME, organism-based; set-up: dose 10 mg/kg, time < 24 hrs, route po; details: in vivo
[10] = Toxicity in imiquimod-induced BALB/c mouse psoriasis model assessed as change in body weight at 0.4 mg/kg, po qd administered for 7 days; type: organism-based; details: in vivo, 168 h, time 7 day
[11] = test system: Mus musculus; assay: Antiinflammatory activity against imiquimod-induced BALB/c mouse psoriasis model assessed as reduction in epidermal proliferation in mouse back skin at 0.4 mg/kg, po qd administered for 7 days by hematoxylin and eosin staining based analysis; type: functional, organism-based; details: time 7.0 day

pIC50 [1]: 5.24
Compound: CC(C)n1nc(-c2ccccc2)c2ccc(COc3ccc([C@@H](C)CC(=O)O)cc3)cc21

pIC50 [2]: 6.85
Compound: C[C@@H](CC(=O)O)c1ccc(OCc2ccc3c(-c4cc(Cl)c(O)c(Cl)c4)nn(C4CCCC4)c3c2)cc1

pIC50 [2]: 5.68
Compound: C[C@@H](CC(=O)O)c1ccc(OCc2ccc3c(-c4ccc(O)c(O)c4)nn(C4CCCC4)c3c2)cc1

pIC50 [2]: 7.27
Compound: C[C@@H](CC(=O)O)c1ccc(OCc2ccc3c(-c4cc(F)c(CO)c(F)c4)nn(C4CCCC4)c3c2)cc1

pIC50 [2]: 7.72
Compound: C[C@@H](CC(=O)O)c1ccc(OCc2cc(F)c3c(-c4cc(Cl)c(O)c(Cl)c4)nn(C4CCCC4)c3c2)cc1

Cmax [4]: 7900 ng/mL
AUC(0-t) at 24 h [5]: 64100 ng·h/mL
Tmax [6]: 120 min
Compound: C[C@@H](CC(=O)O)c1ccc(OCc2cc(F)c3c(-c4cc(Cl)c(CO)c(Cl)c4)nn(C4CCCC4)c3c2)cc1
Activity [3]: Non-Toxic

pIC50 [2]: 6.28
Compound: C[C@@H](CC(=O)O)c1ccc(OCc2ccc3c(-c4cc(Cl)c(O)cc4Cl)nn(C4CCCC4)c3c2)cc1

pIC50 [2]: 5.77
Compound: C[C@@H](CC(=O)O)c1ccc(OCc2ccc3c(-c4ccc(O)c([N+](=O)[O-])c4)nn(C4CCCC4)c3c2)cc1

pIC50 [2]: 6.17
Compound: C[C@@H](CC(=O)O)c1ccc(OCc2ccc3c(-c4ccc(O)cc4Cl)nn(C4CCCC4)c3c2)cc1

pIC50 [2]: 6.29
Compound: C[C@@H](CC(=O)O)c1ccc(OCc2ccc3c(-c4cc(F)c(O)cc4F)nn(C4CCCC4)c3c2)cc1

pIC50 [2]: 5.64
Compound: CC(CC(=O)O)c1ccc(OCc2ccc3c(-c4ccc(Cl)cc4)nn(C4CCCC4)c3c2)cc1 (racemic)

pIC50 [2]: 5.63
Compound: Cc1ccc(-c2nn(C3CCCC3)c3cc(COc4ccc(C(C)CC(=O)O)cc4)ccc23)cc1 (racemic)

Tmax [7]: 30 min
AUC(0-t) at 24 h [8]: 11700 ng·h/mL
Cmax [9]: 2600 ng/mL
Compound: CC(CC(=O)O)c1ccc(OCc2ccc3c(-c4cc(Cl)c(CO)c(Cl)c4)nn(C4CCCC4)c3c2)cc1 (racemic)

pIC50 [2]: 5.96
Compound: COc1ccc(-c2nn(C3CCCC3)c3cc(COc4ccc(C(C)CC(=O)O)cc4)ccc23)cc1 (racemic)

pIC50 [2]: 5.59
Compound: CC(CC(=O)O)c1ccc(OCc2ccc3c(-c4cccc(O)c4)nn(C4CCCC4)c3c2)cc1 (racemic)

Tmax [7]: 30 min
AUC(0-t) at 24 h [8]: 823 ng·h/mL
pIC50 [2]: 6.51
Cmax [9]: 225 ng/mL
Compound: CC(CC(=O)O)c1ccc(OCc2ccc3c(-c4cc(Cl)c(O)c(Cl)c4)nn(C4CCCC4)c3c2)cc1 (racemic)

Compound: CN(Cc1cnc2nc(N)nc(N)c2n1)c1ccc(C(=O)N[C@@H](CCC(=O)O)C(=O)O)cc1 [METHOTREXATE]
Activity [10]: Non-Toxic
Activity [11]: Active

pEC50 [1]: 9.00
Compound: CC[C@@H](O)/C=C/C=C\C[C@@H](O)/C=C/C=C/C=C\[C@@H](O)CCCC(=O)O [RESOLVIN E1]
